Laboratory results as given in US12551463B2, “Dosing of a Bruton's tyrosine kinase inhibitor” (Loxo Oncology, Inc., priority 2019, dated 2026).
“Also recorded” adds a separate entry of the source.

Experiments:
REC-1 cells = assay: In vivo mouse xenograft study, REC-1; parameters: species or system mice; conditions: BTK-I BID alone; BTK WT driven REC-1 (MCL) xenograft
Protocol: (§1) In all studies, test articles are administered alone and in combination, following different dosing regimens.
(§2) Human TMD8 BTK WT, TMD8 BTK C481S or REC-1 cells are injected subcutaneously in the right flank of mice. When tumors reach a mean volume between 150 mm^3 and 400 mm^3, mice are randomized based on their tumor volumes. Mice are next dosed for 14 to 23 days depending on the study design. The potencies of the compounds stand-alone or in combination on the inhibition of the tumor growth are assessed based on the tumor volume changes and weights after collection at the end of the study. Additionally, in the TMD8 studies, the plasma concentrations of test articles are measured at multiple time points after the last dose.

Richter's transformation = assay: Phase 1/2 clinical study, Richter's transformation patients; type: in vivo, human; conditions: 6 of 8 patients
Text: (§3) The study is an open-label, multi-center study of oral BTK-I to evaluate safety and efficacy as monotherapy and as part of combination therapy in patients with CLL/SLL and NHL who have failed or are intolerant to standard of care. This study includes monotherapy as well as combination treatment parts. The monotherapy part includes Phase 1 dose escalation and dose expansion as well as Phase 2. The combination therapy part is a Phase 1b (safety assessment and expansion) of BTK-I in combination with venetoclax, with or without anti-CD20 therapy. Phase 1 dose escalation will proceed prior to start of Phase 1b or Phase 2. Once a recommended Phase 2 dose (RP2D) is identified in Phase 1, enrollment can commence to the Phase 1b combination therapies and Phase 2 monotherapy cohorts. […]
(§4) The primary objective of the Phase 2 is to assess the primary anti-tumor activity of BTK-I based on overall response rate (ORR) and as assessed by the Independent Review Committee. […]
(§5) Dosing during Phase 2 will be at the RP2D of 200 mg QD. […] The dose (and schedule) chosen for Phase 2 may be changed by the SRC based on emerging data (e.g., PK, safety, and/or efficacy) as long as the new dose is not greater than the highest dose that has a DLT <33% and is determined to be safe by the SRC in Phase 1. […]

[1] = Human clinical trials of BTK-I: adverse events in the overall safety population of 323 patients; type: in vivo
Protocol: (Mato A., et al., “Toxicities and Outcomes of 616 Ibrutinib-Treated Patients in the United States: A Real-World Analysis”, Haematologica, 2018, 103(5), 874-879.) Between Mar. 21, 2019 and Sep. 27, 2020, across 7 dose levels ranging from 25 mg once daily (QD) to 300 mg QD in 323 patients, the only treatment-emergent adverse events regardless of attribution or grade seen in ≥10% of patients (n=323) were fatigue (n=65, 20%), diarrhea (n=55, 17%), and contusion (n=42, 13%). In 121 efficacy-evaluable cBTKi-treated chronic lymphocytic leukemia (CLL) patients (median prior lines=4), overall response rate (ORR) was 62% (95% CI: 53-71), rising to 84% in patients followed for ≥10 months.
Atrial arrythmias and hemorrhage are two important AEs associated with covalent BTK inhibitor discontinuation. […] Only 1 patient experienced a grade 3 hemorrhage, a subarachnoid bleed sustained during a bicycle accident. In total, 18 patients had discontinued a prior BTK inhibitor for cardiovascular toxicity (in 15) or hemorrhage (3). None experienced recurrence of these events on BTK-I.

[2] = tested on: Waldenstrom's macroglobulinemia; assay: Phase 1/2 clinical study, Waldenstrom's macroglobulinemia patients; type: in vivo, human
Text: (§6) The study is an open-label, multi-center study of oral BTK-I to evaluate safety and efficacy as monotherapy and as part of combination therapy in patients with CLL/SLL and NHL who have failed or are intolerant to standard of care. This study includes monotherapy as well as combination treatment parts. The monotherapy part includes Phase 1 dose escalation and dose expansion as well as Phase 2. The combination therapy part is a Phase 1b (safety assessment and expansion) of BTK-I in combination with venetoclax, with or without anti-CD20 therapy. Phase 1 dose escalation will proceed prior to start of Phase 1b or Phase 2. Once a recommended Phase 2 dose (RP2D) is identified in Phase 1, enrollment can commence to the Phase 1b combination therapies and Phase 2 monotherapy cohorts.
(§7) The primary objectives of the Phase 1 Dose Escalation and Expansion part of the study is to determine the maximum tolerated dose (MTD)/RP2D of oral BTK-I in patients with previously treated CLL/SLL and B-cell NHL.
(§8) Patients are enrolled with histologically confirmed CLL/SLL or B-cell NHL who have failed or are intolerant to at least two prior standard of care regimens given in combination or sequentially or have received at least one prior BTK inhibitor-containing regimen when BTK inhibitor is approved in first line.
(§9) BTK-I is administered in oral tablet form. Dose escalation will follow a 3+3 design starting with a 25 mg QD dose (followed by 50 mg QD (dose level cohort 2), 100 mg QD (dose level cohort 3), 150 mg QD (dose level cohort 4), 200 mg QD (dose level cohort 5), 250 mg QD (dose level cohort 6), and 300 mg QD (dose level cohort 7)). Cycle length will be 28 days. The drug limiting toxicity (DLT) period will be 28 days, commencing with the first dose of BTK-I.
The primary objective of the Phase 2 is to assess the primary anti-tumor activity of BTK-I based on overall response rate (ORR) and as assessed by the Independent Review Committee.
At the RP2D up to ˜600 patients with CLL/SLL or NHL will be enrolled to one of the following cohorts: • Cohort 1: Non-blastoid MCL patients treated with a prior BTK-inhibitor. • Cohort 2: CLL/SLL patients treated with 2 or more prior regimens, including a BTK inhibitor-containing regimen. • Cohort 3: CLL/SLL patients with no prior therapy. • Cohort 4: CLL/SLL patients treated with prior therapy, BTK inhibitor naive. • Cohort 5: WM patients treated with a prior BTK inhibitor containing regimen. • Cohort 6: MZL patients treated with a prior BTK inhibitor containing regimen. • Cohort 7: (Not otherwise specified) defined as CLL/SLL or NHL not otherwise specified in Cohorts 1 through 6, inclusive of CLL/SLL or NHL, Richter's transformation, blastoid MCL, and patients with history of CNS involvement or primary CNS lymphoma.
Dosing during Phase 2 will be at the RP2D of 200 mg QD. The cycle length will be 28 days. BTK-I will be administered to the Phase 2 patients in oral tablet form at the RP2D. The dose (and schedule) chosen for Phase 2 may be changed by the SRC based on emerging data (e.g., PK, safety, and/or efficacy) as long as the new dose is not greater than the highest dose that has a DLT <33% and is determined to be safe by the SRC in Phase 1. If the RP2D is changed based on emerging data, patients enrolled to Phase 2 at a different dose may have the dose changed to the new dose.

follicular lymphoma = assay: Phase 1/2 clinical study, follicular lymphoma patients; type: in vivo, human; conditions: among 8 efficacy-evaluable patients
Text: as §3, §4, §5

CLL/SLL and B-cell NHL = assay: Phase 1/2 clinical study of oral BTK-I monotherapy, all patients; type: in vivo, human
Text: as §6, §7, §8, §9, §4, §5

TMD8 BTK WT cells = assay: In vivo mouse xenograft study, TMD8 BTK WT; parameters: species or system mice; conditions: BTK-I BID alone; BTK WT driven TMD8 (DLBCL) xenograft
Protocol: as §1, §2

TMD8 BTK C481S cells = assay: In vivo mouse xenograft study, TMD8 BTK C481S; parameters: species or system mice; conditions: BTK-I BID alone; BTK C481S driven TMD8 (DLBCL) xenograft
Protocol: as §1, §2

[3] = 25 mg QD to 300 mg QD, n=323, regardless of attribution or grade
[4] = of 13 with prior covalent BTK inhibitor

SMILES: COc1ccc(F)cc1C(=O)NCc1ccc(-c2nn([C@@H](C)C(F)(F)F)c(N)c2C(N)=O)cc1 [BTK-I, (S)-5-amino-3-(4-((5-fluoro-2-methoxybenzamido)methyl)phenyl)-1-(1,1,1-trifluoropropane-2-yl)-1H-pyrazole-4-carboxamide]
- inhibition of xenograft tumor growth (REC-1 cells): potently inhibited the growth
- responses (Richter's transformation): 75%
- treatment-emergent adverse event contusion, patients [1, 3]: 13%
- treatment-emergent adverse event diarrhea, patients [1, 3]: 17%
- treatment-emergent adverse event fatigue, patients [1, 3]: 20%
- recurrence of cardiovascular toxicity or hemorrhage on BTK-I ([1]; 18 patients who had discontinued a prior BTK inhibitor for cardiovascular toxicity (15) or hemorrhage (3)): None
- permanent discontinuations for drug-related adverse events, patients ([1]; n=323 (in 5)): 1.5%
- dose reductions for drug-related adverse events, patients ([1]; n=323 (in 7)): 2.2%
- dose interruptions for drug-related adverse events, patients ([1]; n=323 (in 26)): 8.0%
- atrial fibrillation/flutter, patients ([1]; overall safety population of 323 patients, 2 patients, both grade 2, considered unrelated): 0.6%
- grade 3 hemorrhage ([1]; overall safety population of 323 patients, subarachnoid bleed during a bicycle accident): 1 patient
- ORR ([2]; 13 patients with prior covalent BTK inhibitor): 69%
- ORR ([2]; 19 efficacy-evaluable WM patients): 68%
- WM responders ongoing ([2]; median follow-up 4.6 months): Ten of 13
- MR, patients [2, 4]: 4
- PR, patients [2, 4]: 5
- PR, patients ([2]; of 19 efficacy-evaluable): 9
- minor response (MR), patients ([2]; of 19 efficacy-evaluable): 4
- patients with responses (follicular lymphoma): 4
- responses at first dose level (CLL/SLL and B-cell NHL; 25 mg QD): Responses were observed
- clinical activity/efficacy across dose levels (CLL/SLL and B-cell NHL; 7 dose levels, 25 mg to 300 mg QD): demonstrated activity across all dose levels; also recorded: Efficacy was observed at all dose levels
- treated patients remaining on BTK-I (CLL/SLL and B-cell NHL; 237 of 323 at data cut): 73%
- responses in remaining efficacy-evaluable patients (CLL/SLL and B-cell NHL; remaining 39 patients (other B-cell malignancies)): 8
- inhibition of xenograft tumor growth (TMD8 BTK WT cells): potently inhibited the growth
- inhibition of xenograft tumor growth (TMD8 BTK C481S cells): potently inhibited the growth
